Here are results for four compounds from US6921539B2, “Antimicrobial therapeutic compositions and method of use” (priority 2002, dated 2005).

Data set [1] relates to acute bronchio pneumonia. The experiment in a line: In Vivo Treatment of Pneumonia in Sheep, control group (Example 9). As to conditions: 15 i.m. injections of 2 ml every 8 hours. From the text:
(§1) For example, a normalization of body temperature, the animal has begun to eat if not eating before treatment, the specific symptoms (e.g., diarrhea, coughing, etc.) have ceased.
(§2) Treatments of procarvol by injection were through methods and techniques normally used by those in the agricultural field.
(§3) The following examples are from a control group. These were similar animals and received standard conventional antibiotic treatment with accepted veterinary treatment protocols.
A 60 day old male sheep with an initial weight of 40 lbs (18 kg) was afflicted with acute bronchio pneumonia. Symptoms included fever and difficult breathing. The sheep had been positively diagnosed for […]. The sheep had been treated previously with penicillin. The therapy included 15 intramuscular injections of 2 ml Procaine penicillin G every 8 hours. The temperature of the sheep over the course of treatment is shown below.

Data set [2] has as its system acute bronchio pneumonia. The experiment in a line: In Vivo Treatment of Pneumonia in Pig, control group (Example 13). The note with it: 8 i.m. injections of 8 ml every 12 hours.
From the text: as §1, §2, §3
A three and one half (3½) month old male Landras pig with an initial weight of 80 lbs (36 kg) was afflicted with acute bronchio pneumonia. Symptoms included coughing, fever, and loss of appetite. The pig had been positively diagnosed for pneumonia. The pig had not been treated previously. The therapy included eight (8) intramuscular injections of 8 ml of ampicillin every 12 hours. The temperature of the pig over the course of treatment is shown below.

For the next data set, the system named is Steptococcus uberis. The experiment in a line: In Vivo Treatment of Mastitis in Cow, control group (Example 14). As to conditions: 8 i.m. injections of 8 ml every 12 hours.
From the text: as §1, §2, §3
A four (4) year old […] Holstein cow with an initial weight of 1000 lbs (454 kg) was afflicted with mastitis. Symptoms included edema on the udder, and poor quality milk. The cow had been positively diagnosed for Steptococcus uberis. The cow had been previously treated with penicillin and streptomycin. The therapy included eight (8) intramuscular injections of 8 ml of ampicillin every 12 hours. The temperature of the cow over the course of treatment is shown below.

In data set [3] the test system is Escherichia coli. The experiment in a line: In Vivo Treatment of Colibacilosis in Pig, control group (Example 8). As to conditions: 2 i.m. injections of 2 ml every 12 hours.
From the text: as §1, §2, §3
A three (3) week old female Landras pig with an initial weight of 19 lbs (9 kg) was afflicted with Escherichia coli colibacilosis. Symptoms included diarrhea. The pig had been positively diagnosed for the bacterium Escherichia coli. The pig had been treated previously with ampicillin and colicisit. The therapy included two (2) intramuscular injections of 2 ml of ampicillin every 12 hours. The temperature of the pig over the course of treatment is shown below.

Data set [4] concerns Escherichia Coli. The experiment in a line: In Vivo Treatment of Colibacilosis in Calf, control group (Example 12). As to conditions: 5 i.m. injections of 5 ml and infusion of electrolytes every 12 hours.
From the text: as §1, §2, §3
A 15 day old male Holstein calf with an initial weight of 90 lbs (41 kg) was afflicted with Escerichia coli colibacilosis. Symptoms fever, diarrhea, dehydration, and loss of appetite. The calf had been positively diagnosed for Escherichia Coli. The calf had not been treated previously. The therapy included five (5) intramuscular injections of 5 ml ampicillin and also the infusion of electrolytes every 12 hours. The temperature of the calf over the course of treatment is shown below.

For data set [5] the following is noted: inactive metabolites after degradation by enzymes; cited from earlier work.
The conditions of data set [6]: cited from earlier work.

Regarding `CC1(C)S[C@@H]2[C@H](NC(=O)Cc3ccccc3)C(=O)N2[C@H]1C(=O)O.CCN(CC)CCOC(=O)c1ccc(N)cc1` [Procaine penicillin G], the outcome of treatment with acute bronchio pneumonia [1] is given as “successful recovery”.

In the case of `CC1(C)S[C@@H]2[C@H](NC(=O)[C@H](N)c3ccccc3)C(=O)N2[C@H]1C(=O)O` [ampicillin], the outcome of treatment in the data set on acute bronchio pneumonia [2] was “successful recovery”; in the data set on Steptococcus uberis, “successful recovery”; with Escherichia coli [3] it was “died as a result of the infection”; in the data set on Escherichia Coli [4] it was “died as a result of the infection”.

Turning to `Cc1ccc(C(C)C)cc1O` [carvacrol, 5-isopropyl-2-methylphenol], in data set [5], the “metabolites excreted in the urine” value is recorded as “approx. 90%” and the “metabolites expired from the lungs in the form of carbon dioxide (CO2)” value is on record as 10%. In data set [6], the solubility in lipids entry is “soluble in lipids”.

Regarding `Cc1ccc(C(C)C)c(O)c1` [thymol, 5-methyl-2[1-methylethyl]phenol], in data set [5], the “metabolites excreted in the urine” value is given as “approx. 90%” and the “metabolites expired from the lungs in the form of carbon dioxide (CO2)” value is recorded as 10%.
